Data from US7728028B2, “Substituted imidazoline compounds” (Gruenenthal GmbH, priority 2005, dated 2010).

Target: T1, human μ-opiate receptor (Homo sapiens, UniProt P35372)
T1 construct: purchased PerkinElmer Life Sciences, Zaventem, Belgium RB-HOM; host or cells: CHO-K1 cells (recombinant expression; membrane preparation)
Experiment: Affinity for the human μ-opiate receptor ([3H]-naloxone displacement, SPA)
Details: Table 1, aldehydes; test substance 1 μmole/l; inhibition of specific [3H]-naloxone binding; CHO-K1 membranes; read-out: μ-Opioid receptor, % inhibition [1 μM]
Description: Investigations on the Efficacy of the Compounds According to the Invention Method for Determining the Affinity for the Human μ-Opiate Receptor
The receptor affinity for the human μ-opiate receptor is determined in a homogeneous batch in microtiter plates. For this purpose dilution series of the substances to be tested are incubated with a receptor membrane preparation (15-40 μg protein/250 μl incubation batch) of CHO-K1 cells, which express the human μ-opiate receptor (RB-HOM receptor membrane preparation from PerkinElmer Life Sciences, Zaventem, Belgium), in the presence of 1 nmole/l of the radioactive ligand [^3H]-naloxone (NET719, PerkinElmer Life Sciences company, Zaventem, Belgium) and 1 mg WGA-SPA beads (wheat germ agglutinin SPA beads from Amersham/Pharmacia, Freiburg, Germany) in a total volume of 250 μl for 90 minutes at room temperature. 50 mmole/l of Tris-HCl supplemented with 0.06% bovine serum albumin is used as incubation buffer. In order to determine the non-specific binding, 100 μmole/l of naloxone is additionally added. After the end of the 90 minutes' incubation time the microtiter plates are centrifuged for 20 minutes at 1000 g and the radioactivity is measured in a beta counter (Microbeta-Trilux, PerkinElmer Wallac, Freiburg, Germany). The percentage displacement of the radioactive ligand from its binding to the human μ-opiate receptor at a concentration of the test substances of 1 μmole/l is determined and is given as percentage inhibition of the specific binding.

T1 sequence (P35372 whole entry): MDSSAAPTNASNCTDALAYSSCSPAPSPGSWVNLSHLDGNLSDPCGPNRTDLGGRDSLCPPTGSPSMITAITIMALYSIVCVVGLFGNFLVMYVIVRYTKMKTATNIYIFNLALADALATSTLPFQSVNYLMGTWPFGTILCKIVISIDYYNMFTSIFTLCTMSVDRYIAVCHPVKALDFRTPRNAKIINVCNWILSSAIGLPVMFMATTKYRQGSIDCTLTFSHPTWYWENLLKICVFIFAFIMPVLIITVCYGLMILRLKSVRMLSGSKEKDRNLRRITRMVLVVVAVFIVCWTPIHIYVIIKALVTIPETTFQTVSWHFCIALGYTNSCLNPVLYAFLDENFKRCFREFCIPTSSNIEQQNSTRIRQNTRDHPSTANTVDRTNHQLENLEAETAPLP

| Structure (SMILES) | inhibition at 1 µM |
| --- | --- |
| CN(C)C(c1ccc(Cl)cc1)C1CCC(C=O)CC1 (stereo not drawn) [Example 9c, 4-[(4-chlorophenyl)-dimethylaminomethyl]-cyclohexane-carbaldehyde] | 45% |
| CN(C)C(c1cccs1)C1CCC(C=O)CC1 (stereo not drawn) [Example 9d, 4-(dimethylaminothiophen-2-yl-methyl)-cyclohexane carbaldehyde] | 69% |
| CN(C)C(c1cccc(F)c1)C1CCC(CC=O)CC1 (stereo not drawn) [Example 10b, {4-[dimethylamino-(3-fluorophenyl)-methyl]-cyclohexyl}-acetaldehyde] | 67% |
| CN(C)C(c1ccc(Cl)cc1)C1CCC(CC=O)CC1 (stereo not drawn) [Example 10c, {4-[(4-Chlorophenyl)-dimethylaminomethyl]-cyclohexyl}-acetaldehyde] | 50% |
| CN(C)C(c1cccs1)C1CCC(CC=O)CC1 (stereo not drawn) [Example 10d, {4-[dimethylamino-thiophen-2-yl-methyl]-cyclohexyl}-acetaldehyde] | 79% |

Same assay, conditions: Table 2, Examples 11-161; test substance 1 μmole/l; inhibition of specific [3H]-naloxone binding; CHO-K1 membranes; read-out: μ-Opioid receptor, % inhibition [1 μM]

| Structure (SMILES) | inhibition at 1 µM |
| --- | --- |
| COC(=O)C1(CC(C)C)N=CN(C2CCCCC2)C1C1CCC(C(c2cccc(F)c2)N(C)C)CC1 (stereo not drawn) [Example 11, 1-cyclohexyl-5-{4-[dimethylamino-(3-fluorophenyl)-methyl]-cyclohexyl}-4-isobutyl-4,5-dihydro-1H-imidazole-4-carboxylic acid methyl ester] | 84% |
| COC(=O)C1(Cc2ccc(Cl)cc2)N=CN(C2CCCCC2)C1C1CCC(C(c2cccc(F)c2)N(C)C)CC1 (stereo not drawn) [Example 12, 4-(4-chlorobenzyl)-1-cyclohexyl-5-{4-[dimethylamino-(3-fluorophenyl)-methyl]-cyclohexyl}-4,5-dihydro-1H-imidazole-4-carboxylic acid methyl ester] | 73% |
| CCCCC1(C(=O)OC)N=CN(C2CCCCC2)C1C1CCC(C(c2cccc(F)c2)N(C)C)CC1 (stereo not drawn) [Example 13, 4-butyl-1-cyclohexyl-5-{4-[dimethylamino-(3-fluorophenyl)-methyl]-cyclohexyl}-4,5-dihydro-1H-imidazole-4-carboxylic acid methyl ester] | 94% |
| COC(=O)C1(CC(C)C)N=CN(C2CCCCC2)C1C1CCC(C(c2ccc(Cl)cc2)N(C)C)CC1 (stereo not drawn) [Example 14, 5-{4-[(4-chlorophenyl)-dimethylaminomethyl]-cyclohexyl}-1-cyclohexyl-4-isobutyl-4,5-dihydro-1H-imidazole-4-carboxylic acid methyl ester] | 92% |
| COC(=O)C1(Cc2ccc(Cl)cc2)N=CN(C2CCCCC2)C1C1CCC(C(c2ccc(Cl)cc2)N(C)C)CC1 (stereo not drawn) [Example 15, 4-(4-chlorobenzyl)-5-{4-[(4-chlorophenyl)-dimethylaminomethyl]-cyclohexyl}-1-cyclohexyl-4,5-dihydro-1H-imidazole-4-carboxylic acid methyl ester] | 76% |
| CCCCC1(C(=O)OC)N=CN(C2CCCCC2)C1C1CCC(C(c2ccc(Cl)cc2)N(C)C)CC1 (stereo not drawn) [Example 16, 4-butyl-5-{4-[(4-chlorophenyl)-dimethylaminomethyl]-cyclohexyl}-1-cyclohexyl-4,5-dihydro-1H-imidazole-4-carboxylic acid methyl ester] | 92% |
| COC(=O)C1(CC(C)C)N=CN(C2CCCCC2)C1CC1CCC(C(c2ccc(Cl)cc2)N(C)C)CC1 (stereo not drawn) [Example 17, 5-{4-[(4-chlorophenyl)-dimethylaminomethyl]-cyclohexylmethyl}-1-cyclohexyl-4-isobutyl-4,5-dihydro-1H-imidazole-4-carboxylic acid methyl ester] | 96% |
| COC(=O)C1(Cc2ccc(Cl)cc2)N=CN(C2CCCCC2)C1CC1CCC(C(c2ccc(Cl)cc2)N(C)C)CC1 (stereo not drawn) [Example 18, 4-(4-chlorobenzyl)-5-{4-[(4-chlorophenyl)-dimethylaminomethyl]-cyclohexylmethyl}-1-cyclohexyl-4,5-dihydro-1H-imidazole-4-carboxylic acid methyl ester] | 90% |
| CCCCC1(C(=O)OC)N=CN(C2CCCCC2)C1CC1CCC(C(c2ccc(Cl)cc2)N(C)C)CC1 (stereo not drawn) [Example 19, 4-butyl-5-{4-[(4-chlorophenyl)-dimethylaminomethyl]-cyclohexylmethyl}-1-cyclohexyl-4,5-dihydro-1H-imidazole-4-carboxylic acid methyl ester] | 96% |
| COC(=O)C1(Cc2ccc(Cl)cc2)N=CN(C2CCCCC2)C1CC1CCC(C(c2cccs2)N(C)C)CC1 (stereo not drawn) [Example 20, 4-(4-chlorobenzyl)-1-cyclohexyl-5-[4-(dimethylamino-thiophen-2-yl-methyl)-cyclohexylmethyl]-4,5-dihydro-1H-imidazole-4-carboxylic acid methyl ester] | 95% |
| CCCN1C=NC(CC(C)C)(C(=O)OC)C1C1CCC(C(c2cccc(F)c2)N(C)C)CC1 (stereo not drawn) [Example 21, 5-{4-[dimethylamino-(3-fluorophenyl)-methyl]-cyclohexyl}-4-isobutyl-1-propyl-4,5-dihydro-1H-imidazole-4-carboxylic acid methyl ester] | 83% |
| CCCN1C=NC(Cc2ccc(Cl)cc2)(C(=O)OC)C1C1CCC(C(c2cccc(F)c2)N(C)C)CC1 (stereo not drawn) [Example 22, 4-(4-chlorobenzyl)-5-{4-[dimethylamino-(3-fluorophenyl)-methyl]-cyclohexyl}-1-propyl-4,5-dihydro-1H-imidazole-4-carboxylic acid methyl ester] | 88% |
| CCCCC1(C(=O)OC)N=CN(CCC)C1C1CCC(C(c2cccc(F)c2)N(C)C)CC1 (stereo not drawn) [Example 23, 4-butyl-5-{4-[dimethylamino-(3-fluorophenyl)-methyl]-cyclohexyl}-1-propyl-4,5-dihydro-1H-imidazole-4-carboxylic acid methyl ester] | 76% |
| CCCN1C=NC(CC(C)C)(C(=O)OC)C1C1CCC(C(c2ccc(Cl)cc2)N(C)C)CC1 (stereo not drawn) [Example 24, 5-{4-[(4-chlorophenyl)-dimethylaminomethyl]-cyclohexyl}-4-isobutyl-1-propyl-4,5-dihydro-1H-imidazole-4-carboxylic acid methyl ester] | 89% |
| CCCN1C=NC(Cc2ccc(Cl)cc2)(C(=O)OC)C1C1CCC(C(c2ccc(Cl)cc2)N(C)C)CC1 (stereo not drawn) [Example 25, 4-(4-chlorobenzyl)-5-{4-[(4-chlorophenyl)-dimethylaminomethyl]-cyclohexyl}-1-propyl-4,5-dihydro-1H-imidazole-4-carboxylic acid methyl ester] | 83% |
| CCCN1C=NC(CC(C)C)(C(=O)OC)C1CC1CCC(C(c2ccc(Cl)cc2)N(C)C)CC1 (stereo not drawn) [Example 26, 5-{4-[(4-chlorophenyl)-dimethylaminomethyl]-cyclohexylmethyl}-4-isobutyl-1-propyl-4,5-dihydro-1H-imidazole-4-carboxylic acid methyl ester] | 96% |
| CCCN1C=NC(Cc2ccc(Cl)cc2)(C(=O)OC)C1CC1CCC(C(c2ccc(Cl)cc2)N(C)C)CC1 (stereo not drawn) [Example 27, 4-(4-chlorobenzyl)-5-{4-[(4-chlorophenyl)-dimethylaminomethyl]-cyclohexylmethyl}-1-propyl-4,5-dihydro-1H-imidazole-4-carboxylic acid methyl ester] | 96% |
| CCCCC1(C(=O)OC)N=CN(CCC)C1CC1CCC(C(c2ccc(Cl)cc2)N(C)C)CC1 (stereo not drawn) [Example 28, 4-butyl-5-{4-[(4-chlorophenyl)-dimethylaminomethyl]-cyclohexylmethyl}-1-propyl-4,5-dihydro-1H-imidazole-4-carboxylic acid methyl ester] | 97% |
| CCCCN1C=NC(CC(C)C)(C(=O)OC)C1C1CCC(C(c2cccc(F)c2)N(C)C)CC1 (stereo not drawn) [Example 29, 1-butyl-5-{4-[dimethylamino-(3-fluorophenyl)-methyl]-cyclohexyl}-4-isobutyl-4,5-dihydro-1H-imidazole-4-carboxylic acid methyl ester] | 89% |
| CCCCN1C=NC(Cc2ccc(Cl)cc2)(C(=O)OC)C1C1CCC(C(c2cccc(F)c2)N(C)C)CC1 (stereo not drawn) [Example 30, 1-butyl-4-(4-chlorobenzyl)-5-{4-[dimethylamino-(3-fluorophenyl)-methyl]-cyclohexyl}-4,5-dihydro-1H-imidazole-4-carboxylic acid methyl ester] | 89% |
| CCCCN1C=NC(CC(C)C)(C(=O)OC)C1C1CCC(C(c2ccc(Cl)cc2)N(C)C)CC1 (stereo not drawn) [Example 31, 1-butyl-5-{4-[(4-chlorophenyl)-dimethylaminomethyl]-cyclohexyl}-4-isobutyl-4,5-dihydro-1H-imidazole-4-carboxylic acid methyl ester] | 91% |
| CCCCN1C=NC(Cc2ccc(Cl)cc2)(C(=O)OC)C1C1CCC(C(c2ccc(Cl)cc2)N(C)C)CC1 (stereo not drawn) [Example 32, 1-butyl-4-(4-chlorobenzyl)-5-{4-[(4-chlorophenyl)-dimethylaminomethyl]-cyclohexyl}-4,5-dihydro-1H-imidazole-4-carboxylic acid methyl ester] | 74% |
